Experimental data as given in PubChem BioAssay (NCI).
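Following 48 hours of exposure in 96-well plates, responses at five concentrations were used to interpolate endpoints linearly. TGI is the concentration that stops growth completely.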

Legend:
Experiment in all cases: NCI anticancer screen, dose series, 48 h
MDA-MB-231 breast = test system: MDA-MB-231 breast
HOP-62 NSCLC = test system: HOP-62 NSCLC
A549 NSCLC = test system: A549 NSCLC
OVCAR-5 ovarian = test system: OVCAR-5 ovarian
T-47D breast = test system: T-47D breast
CAKI-1 renal = test system: CAKI-1 renal
KM12 colon = test system: KM12 colon
HL-60(TB) leukemia = test system: HL-60(TB) leukemia
786-0 renal = test system: 786-0 renal
NCI/ADR-RES ovarian = test system: NCI/ADR-RES ovarian

Row | Compound | TGI (MDA-MB-231 breast) [µM] | TGI (HOP-62 NSCLC) [µM] | TGI (A549 NSCLC) [µM] | TGI (OVCAR-5 ovarian) [µM] | TGI (T-47D breast) [µM] | TGI (CAKI-1 renal) [µM] | TGI (KM12 colon) [µM] | TGI (HL-60(TB) leukemia) [µM] | TGI (786-0 renal) [µM] | TGI (NCI/ADR-RES ovarian) [µM]
1 | CC(=C(C(N)=O)C(N)=O)C1C=C(c2cccs2)CC(c2ccc(Cl)cc2)=C1O (stereo not given) | > 100 | > 100 | > 100 | > 100 | > 100 | > 100 | > 100 | > 100 | > 100 | > 100
2 | Cc1noc2nnn(-c3ccc(Cl)cc3)c(=O)c12 | 25.7 | 29.7 | 27.7 | 20 | 10.8 | 13 | 31.1 | 3.57 | 8.33 | 29.8
3 | COc1ccc(/C=C2\N=C(c3ccccc3)N(N=C3NC(=O)CC(=O)N3)C2=O)cc1 | > 100 | > 100 | > 100 | > 100 | > 100 | > 100 | > 100 | > 100 | > 100 | > 100
4 | Cc1ccc(-n2[nH]nc(C#N)c2=O)cc1 | > 100 | > 100 | > 100 | > 100 | > 100 | > 100 | > 100 | > 100 | > 100 | > 100
5 | N=C(N)SCc1ccc(Cl)cc1Cl (tested in a mixture with another compound) | 25 | 30.2 | > 69.6 | 35.7 | 39 | 24.2 | 28.2 | 22.4 | 26.9 | 73.9
6 | CCN1CCN(c2nc3ccc([N+](=O)[O-])cc3nc2C(=O)c2ccccc2)CC1 | 28.7 | 35.6 | 33.7 | 36.1 | > 100 | 30.5 | 31.8 | 61.9 | 34.2 | 29.2
7 | CSc1c(C#N)c(N)nc2c(N=Nc3ccc(Cl)cc3)c(N)nn12 | 4.85 | 28.6 | > 73.8 | 39.6 | 3.86 | 34.5 | 11.8 | 5.23 | 7.1 | 39
8 | O=C/C=C/c1ccco1 | > 100 | > 100 | > 100 | > 100 | > 100 | > 100 | > 100 | > 100 | > 100 | > 100
9 | Cn1/c(=N\S(=O)(=O)c2ccccc2)n(S(=O)(=O)c2ccccc2)c2ccccc21 | > 100 | > 100 | > 100 | > 100 | > 100 | > 100 | > 100 | 7.16 | > 100 | > 100
10 | CN(C)c1nncc2[nH]cnc12 | > 100 | > 100 | > 100 | > 100 | > 100 | > 100 | > 100 | > 100 | > 100 | > 100
11 | Cc1cc(Cc2c(F)c(F)c(C(c3cc(C)no3)c3c(F)c(F)c(F)c(F)c3F)c(F)c2F)on1 (stereo not given) | > 100 | > 100 | > 100 | > 100 | > 100 | > 100 | > 100 | > 39.6 | > 100 | > 100
12 | O=S(=O)(O)ON=C1c2ccccc2-c2ccccc21 | > 100 | > 100 | > 100 | > 100 | > 100 | > 100 | > 100 | > 100 | > 100 | > 100
13 | O=C1[C@@H]2[C@@H](c3ccccc3)[C@]2(Cl)C(=O)[C@H]2[C@H](c3ccccc3)[C@@]12Cl | > 100 | > 100 | > 100 | > 100 | > 100 | > 100 | > 100 | > 100 | > 100 | > 100
14 | O=c1oc2cc(O)ccc2c(O)c1C(c1cccnc1)c1c(O)c2ccc(O)cc2oc1=O | > 100 | > 100 | > 100 | > 100 | > 100 | > 100 | > 100 | > 100 | > 100 | > 100
15 | N#CCCN(CCC#N)c1ccc(/C=C2\N=C(c3ccccc3)N(NC(N)=S)C2=O)cc1 | > 100 | > 100 | > 100 | > 100 | > 100 | > 100 | > 100 | > 100 | > 100 | > 100
16 | CCOC(=O)Cc1nc2sc(S(N)(=O)=O)nn2c1Br | 44.6 | > 100 | > 100 | > 100 | 70.8 | 37.2 | > 100 | > 100 | 52.1 | > 100
17 | CCOC(=O)c1c(N2CCCC2)[nH]c(=O)c(C(c2ccco2)c2c(O)c(C(=O)OCC)c(N3CCCC3)[nH]c2=O)c1O | > 100 | > 100 | > 100 | > 100 | > 100 | > 100 | > 100 | > 100 | > 100 | > 100
